≈ marks a conversion by molar mass, not a printed value.

For the data set the following is noted: buffer; pH 7.4; 200.0 µM.
The kinetic solubility is the concentration staying in solution when a stock, usually in DMSO, is diluted into the medium. Turning to `CC1CCN(C(=O)C(C)Cl)CC1` (centres undefined), the solubility (kinetic) worked out at 11.1 µg/mL (≈ 58.5 µM).

For the molecule `COc1ccc(CCNC(=O)CN2C(=O)NC3(CCCCC3C)C2=O)cc1` (centres undefined), the kinetic solubility was greater than 56 µg/mL. The same measure for `O=C(c1ccco1)N1CCN(S(=O)(=O)c2ccccc2)CC1`: greater than 48.1 µg/mL. On to `Cc1cc(C)nc(SCCC(=O)Nc2ccccc2Cl)n1`, for which the kinetic solubility was greater than 48.3 µg/mL. The molecule `Cc1ccnc(NC(=O)CNC(=O)c2ccccc2)c1` yielded a solubility (kinetic) greater than 40.4 µg/mL. `CCCc1ccc2oc(C(=O)N3CCC[C@H]3CO)c(C)c2c1` yielded a solubility (kinetic) of 41.8 µg/mL (≈ 139 µM). As to `COc1ccc2oc(C(=O)NC(C)(C)C)c(C)c2c1`, the solubility (kinetic) came out at 1.8 µg/mL (≈ 6.89 µM). In the case of `O=C(COC(=O)c1ccccc1Cl)Nc1ccc2[nH]c(=O)[nH]c2c1` it was 23.3 µg/mL (≈ 67.4 µM). The molecule `COCCCn1c(SCC(=O)NC2CCCC2)nnc1-c1ccncc1` gave a solubility (kinetic) greater than 56.3 µg/mL. As for `O=C(CSCc1c(F)cccc1Cl)NCc1ccncc1`, the kinetic solubility was greater than 48.7 µg/mL.

As for `Cc1cc(NC(=O)c2cccs2)ncc1NC(=O)C(C)(C)C`, the solubility (kinetic) is 38.6 µg/mL (≈ 122 µM). Turning to `O=C(CCC(=O)NC1CCCCC1)NCc1ccc(F)cc1`, the kinetic solubility is greater than 46 µg/mL. In the case of `CC(=O)Nc1ccc(S(=O)(=O)N(C)c2ccc(OCCOc3ccccc3F)cc2)cc1` it was 6.5 µg/mL (≈ 14.2 µM).

`COc1ccc(C(=O)NCCNc2ccc([N+](=O)[O-])cn2)cc1` yielded a solubility (kinetic) of 16.4 µg/mL (≈ 51.8 µM). Molecule `O=C(C1CCC1)N1CCN(S(=O)(=O)c2ccccc2)CC1` had a solubility (kinetic) greater than 46.3 µg/mL. In turn, `CC(=O)C1=C(C)NC(C)=C(C(C)=O)C1c1ccccc1` came in with a solubility (kinetic) of 35.3 µg/mL (≈ 131 µM). `C#CC(C)(C)NC(=S)NC1CC2C=CC1C2` (centres undefined) returned a solubility (kinetic) of 28 µg/mL (≈ 119 µM). On to `Oc1ccc(CN2CCN(c3ncccn3)CC2)cc1`, for which the kinetic solubility was 34.2 µg/mL (≈ 127 µM).

As for `CNCc1ccccc1Sc1ccc(O)c(O)c1.O=C([O-])/C=C\C(=O)[O-]`, the kinetic solubility was found to be 31.5 µg/mL.

Molecule `CC(C)Oc1ccc(C(=O)NC2=NCCS2)cc1` registered a solubility (kinetic) of 23.1 µg/mL (≈ 87.4 µM). `C/C=C/C(=O)N(CC)c1ccccc1C` came in with a solubility (kinetic) of 17.7 µg/mL (≈ 87.1 µM).

As to `Cc1ccc(C)c(N2C(=O)CC(Cc3ccc(Cl)cc3)C2=O)c1` (centres undefined), the kinetic solubility is 17.6 µg/mL (≈ 53.7 µM). Turning to `CC(NC(=O)COc1ccccc1)C(=O)N1CCN(c2ccc(F)cc2)CC1` (centres undefined), the kinetic solubility is greater than 57.8 µg/mL. In turn, `COc1cccc(N2CCN(C(=O)CCNS(=O)(=O)c3ccc(F)c(F)c3)CC2)c1` yielded a kinetic solubility of 56.7 µg/mL (≈ 129 µM). The same measure for `O=C(Cn1c(=S)[nH]c2ccccc2c1=O)NCCc1ccccc1`: 0.9 µg/mL (≈ 2.65 µM). In the case of `Brc1ccsc1-c1csc(-c2ccncc2)n1` it was 2.7 µg/mL (≈ 8.35 µM); in that of `Cc1ccc(S(=O)(=O)N(C)C)cc1NC(=O)C(C)OC(=O)c1cc[n+]([O-])cc1` (centres undefined), greater than 61.1 µg/mL.

For `COc1ccc(OC)c(C(=O)COC(=O)c2cccnc2Cl)c1`, the solubility (kinetic) is greater than 50.4 µg/mL. In the case of `CCCN(Cc1ccccc1)C(=S)Nc1ccc(F)cc1` it was 39.2 µg/mL (≈ 130 µM); in that of `Cc1ccc(S(=O)(=O)/N=C(\N)c2ccc(F)cc2)cc1`, 38.1 µg/mL (≈ 130 µM); in that of `CSc1cccc(NC(N)=S)c1`, 29.2 µg/mL (≈ 147 µM). In the case of `O=C(COC(=O)CNC(=O)c1ccccc1F)NC1CC1` it was greater than 44.1 µg/mL; in that of `COC(=O)c1ccc(Nc2nc(-c3ccncc3)nc3ccccc23)cc1`, 1.1 µg/mL (≈ 3.09 µM); in that of `CCn1ccnc1C(O)(c1ccccc1)c1ccccc1`, greater than 41.8 µg/mL. Turning to `COc1ccc(C2=NOC(CNC(=S)N3CCOCC3)C2)cc1` (centres undefined), the solubility (kinetic) was determined as 12.8 µg/mL (≈ 38.2 µM). `CS(=O)(=O)N(CC(=O)N1CCCCCC1)c1cccc(F)c1` had a kinetic solubility greater than 49.3 µg/mL. `Cc1cccc(/C(N)=N/OC(=O)c2cccc3ccccc23)c1` returned a kinetic solubility of 1.1 µg/mL (≈ 3.61 µM). `CCN1CCCC1CNC(=O)CCc1nnc(CCC2CCCCC2)o1` (centres undefined) gave a solubility (kinetic) greater than 54.4 µg/mL. `CCCn1c(N2CCN(C(=O)/C=C/C(=O)O)CC2)nc2ccccc21` returned a kinetic solubility greater than 51.4 µg/mL. In turn, `COCCNC(=O)C(=O)Nc1cc2c3c(c1)CCC(=O)N3CCC2` yielded a solubility (kinetic) of 46.4 µg/mL (≈ 140 µM). Consider `CCOC(=O)c1c(C)[nH]c(C(=O)OCc2ccc(F)cc2)c1C`, for which the solubility (kinetic) is 2 µg/mL (≈ 6.26 µM).

`COc1ccc(/C=N/OC(=O)Nc2ccc(Cl)cc2)c(OC)c1` showed a solubility (kinetic) of 6.2 µg/mL (≈ 18.5 µM). `O=C(Nc1ccc(F)cc1)c1cccnc1`: the solubility (kinetic) was greater than 32.4 µg/mL. With `CC(O)c1nc2cc([N+](=O)[O-])ccc2n1Cc1ccccc1` (centres undefined), the solubility (kinetic) came out at 6.9 µg/mL (≈ 23.2 µM). `CNc1nc(-c2c(C)n(C)c3ccc(OC)cc23)cs1` had a kinetic solubility of 23.9 µg/mL (≈ 83.2 µM). In the case of `Cc1ccc(C)c(NC(=O)CCc2ccc(C)o2)c1` it was 24.6 µg/mL (≈ 95.6 µM); in that of `COc1ccnc2c1c(=O)n(Cc1c(F)cccc1Cl)c(=O)n2C`, 9.8 µg/mL (≈ 28 µM); in that of `C=CCOc1c(Cl)cc(C(=S)N2CCCC2)cc1OCC`, 5.7 µg/mL (≈ 17.5 µM). As for `O=C(O)Cn1c(=O)c2c(c3ccccc31)CCC2`, the kinetic solubility is greater than 36.5 µg/mL. Turning to `CCOc1ccc(OCCCC(=O)N(C)CC(=O)Nc2ccccc2Br)cc1`, the kinetic solubility came to 5.6 µg/mL (≈ 12.5 µM).

In turn, `CN1CCC(CNC(=O)Nc2csc3ccccc23)CC1` returned a kinetic solubility greater than 45.5 µg/mL. In the case of `Cn1c(=O)n(C)c2cc3[nH]cnc3cc21` it was greater than 30.3 µg/mL; in that of `O=C(NCCCc1ccccc1)c1cncc(Br)c1`, 47.9 µg/mL (≈ 150 µM). The molecule `Cc1c(C(=O)O)c(=O)n(-c2ccccc2)n1-c1ccccc1` returned a solubility (kinetic) greater than 44.1 µg/mL. `COc1ccc(CCNC(=O)CCNC(=O)c2ccco2)cc1OC` gave a kinetic solubility of 48.7 µg/mL (≈ 141 µM).

In turn, `CCOC(=O)CNC(=O)Cc1ccc(Cl)cc1` yielded a solubility (kinetic) greater than 38.4 µg/mL. Molecule `O=C(CN1CCN(Cc2ccccc2F)C1=O)NCC1CCCO1` (centres undefined) had a kinetic solubility greater than 50.3 µg/mL. In the case of `Clc1ccc2c(N3CCOCC3)ccnc2c1` it was greater than 37.3 µg/mL; in that of `N#Cc1c(/N=C/c2cccnc2)sc2c1CCCC2`, 7.5 µg/mL (≈ 28.1 µM); in that of `COc1ccc(NC(=O)N2CCc3ccccc3C2)cc1OC`, greater than 46.9 µg/mL.

With `CCNC(=S)Nn1cnc2ccccc21`, the solubility (kinetic) was greater than 33 µg/mL. As for `Cc1ccc(/C=[N+](\[O-])c2ccccc2C)o1`, the solubility (kinetic) was 22.2 µg/mL (≈ 103 µM). The same measure for `CCN(Cc1ccccc1)C(=O)CC(=O)N(CC)Cc1ccccc1`: greater than 50.8 µg/mL; for `COc1ccc(C(=O)NCCCSc2ccccc2)cc1F`: 2.5 µg/mL (≈ 7.83 µM); for `CC(=O)Oc1ccc(-c2cccc(C(=O)N3CCCCC3)c2)cc1`: 40.8 µg/mL (≈ 126 µM). As to `COc1ccc(C)cc1Nc1nc(N)c2ccccc2n1.Cl`, the solubility (kinetic) was determined as 47.1 µg/mL. Molecule `Cc1ccc(NC(=O)C2CC3CCC2C3)c(Br)c1` (centres undefined) returned a kinetic solubility of 1.9 µg/mL (≈ 6.16 µM). Consider `CC(Nc1ccccc1)c1ccncc1` (centres undefined), for which the kinetic solubility was greater than 29.7 µg/mL. `COc1ccc(OCC(=O)Nc2ccccc2Cl)cc1` came in with a solubility (kinetic) of 4.5 µg/mL (≈ 15.4 µM). The same measure for `CC(C)CC(NC(N)=O)C(=O)NCc1ccc(Cl)cc1` (centres undefined): 35.3 µg/mL (≈ 119 µM). `Cc1ccsc1C(=O)OCC(=O)NCCc1ccccc1` gave a solubility (kinetic) of 10.4 µg/mL (≈ 34.3 µM).

The molecule `O=C(NC1CCCCC1)c1ccc(-c2ccccc2)cc1` showed a kinetic solubility of less than 0.6 µg/mL. In turn, `COc1cc(NC(=O)c2ccccc2)ccc1NC(=O)Cc1ccccc1` gave a solubility (kinetic) of less than 0.4 µg/mL.

As for `N/C(COc1cccc(Cl)c1)=N\O`, the solubility (kinetic) came out at 20.1 µg/mL (≈ 100 µM). `O=C(CCNS(=O)(=O)c1ccccc1)Nc1ccccc1` gave a solubility (kinetic) greater than 45.7 µg/mL.

Regarding `COc1ccc2c(COC(=O)[C@H](C)NS(=O)(=O)c3ccccc3F)cc(=O)oc2c1`, the solubility (kinetic) was 59.1 µg/mL (≈ 136 µM). `CCNC(=O)COC(=O)CCC(=O)c1ccc(F)cc1`: the solubility (kinetic) was greater than 42.2 µg/mL. `CC1CCCCC1NC(=O)CNC(=O)c1ccco1` (centres undefined) registered a kinetic solubility of 37.2 µg/mL (≈ 141 µM). Molecule `CC(C)(O)C(=O)NNC(=S)NCc1ccco1` returned a solubility (kinetic) greater than 38.6 µg/mL.

Consider `CN(CC(=O)NCc1ccncc1)S(=O)(=O)c1ccc(Cl)cc1`, for which the kinetic solubility is greater than 53.1 µg/mL. The same measure for `CC[N+](CC)(CC)CC.[Cl-]`: 20.3 µg/mL. In turn, `CCN(C(=O)COC(=O)c1ccc(SC)cc1OC)C1CCS(=O)(=O)C1` (centres undefined) displayed a kinetic solubility greater than 60.2 µg/mL. The same measure for `OCCNc1nc2ccccc2n1CC(O)c1ccccc1` (centres undefined): 40.4 µg/mL (≈ 136 µM); for `CCOC(=O)c1cc(C)nc(S(C)(=O)=O)c1C#N`: 28.3 µg/mL (≈ 105 µM); for `O=S(=O)(CCSc1ccc(C(F)(F)F)cn1)c1ccc(Cl)cc1`: less than 0.8 µg/mL. Take `COC(=O)c1sccc1NC(=O)Nc1cccc(C(C)=O)c1`: the kinetic solubility is 19.1 µg/mL (≈ 60 µM).

`OC1(Cc2ccccc2)CCNCC1`: the kinetic solubility was greater than 28.7 µg/mL.

As to `Cc1ccc(F)cc1NC(=O)C1C2CCC(O2)C1C(=O)O` (centres undefined), the solubility (kinetic) is greater than 44 µg/mL. On to `O=C(N[C@@H]1C[C@H]2CC[C@@H]1C2)c1ccco1`, for which the kinetic solubility was determined as 29.8 µg/mL (≈ 145 µM). As to `CC(O)CNCCCOc1cccc(C(F)(F)F)c1.O=C(O)C(=O)O` (centres undefined), the kinetic solubility came out at 51.7 µg/mL. As for `O=C(c1ccco1)N1CCN(c2ccc([N+](=O)[O-])cn2)CC1`, the solubility (kinetic) is 18.3 µg/mL (≈ 60.5 µM). For the molecule `CC(=O)C1=C(C)NC(=S)NC1c1cc([N+](=O)[O-])ccc1O` (centres undefined), the solubility (kinetic) was greater than 46.1 µg/mL.

With `CCN(C(=O)COC(=O)Cc1c[nH]c2ccccc12)C1CCS(=O)(=O)C1` (centres undefined), the solubility (kinetic) is greater than 56.8 µg/mL. In the case of `O=c1[nH]c(/C=C\c2cccc(F)c2)nc(O)c1[N+](=O)[O-]` it was greater than 41.6 µg/mL. In the case of `Cc1cccnc1Nc1nc(-c2ccc(F)cc2)cs1`, the solubility (kinetic) amounted to 0.3 µg/mL (≈ 1.05 µM). The molecule `O=[N+]([O-])c1ccc(P(=O)(Cc2ccccc2)c2ccccc2O)cc1` (centres undefined) displayed a solubility (kinetic) of 17 µg/mL (≈ 48.1 µM). `CC(=O)c1c(C)[nH]c(C(=O)COC(=O)c2ccc(Cl)nc2)c1C` registered a kinetic solubility of 3.9 µg/mL (≈ 11.7 µM). On to `Cc1ccc(NC(=S)N2CCC(c3ccccc3)C2)c(Cl)c1` (centres undefined), for which the kinetic solubility amounted to 7.1 µg/mL (≈ 21.5 µM). In turn, `CC(=O)N1CCC(O)(c2ccc3c(c2)OCO3)CC1` displayed a solubility (kinetic) of 37.1 µg/mL (≈ 141 µM). Molecule `CCCN(CC(=O)Nc1ccc(F)c(F)c1F)C(=O)c1ccc2c(c1)NC(=O)CS2` registered a solubility (kinetic) of 11.2 µg/mL (≈ 25.6 µM). As for `O=C(COC(=O)COc1ccc(Cl)cc1)NCc1ccc2c(c1)OCO2`, the kinetic solubility was 2.3 µg/mL (≈ 6.09 µM).

The molecule `COc1cc2c3c(c1)C(C)CC(C)(C)N3C(=O)C2=O` (centres undefined) displayed a solubility (kinetic) of 36.2 µg/mL (≈ 140 µM). In turn, `O=[N+]([O-])c1ccc(CP(=O)(c2ccccc2)c2ccccc2)cc1` yielded a kinetic solubility of 8 µg/mL (≈ 23.7 µM). The molecule `CC(C)c1ccccc1OCCCCN1CCCCC1` came in with a solubility (kinetic) of 37.1 µg/mL (≈ 135 µM).

The record behind these values is PubChem BioAssay AID1996.
